Consider 31 compounds from patent US10736974B2, “Scaffolds and multifunctional intermediates for imaging PSMA and cancer therapy” (THE JOHNS HOPKINS UNIVERSITY, priority 2014, dated 2020).

In series [1] the target is T1, PSMA (Homo sapiens (Human), UniProt Q04609). The series is described as follows: NAALADase assay: PSMA inhibitory activity, fluorescence-based Amplex Red Glutamic Acid assay, lysates of LNCaP cell extracts. It counts as biochemical. As for the experimental part: Briefly, lysates of LNCaP cell extracts (25 μL) were incubated with the inhibitor (12.5 μL) in the presence of 4 μM N-acetylaspartylglutamate (NAAG) (12.5 μL) for 120 min. The amount of the glutamate released by NAAG hydrolysis was measured by incubating with a working solution (50 μL) of the Amplex Red Glutamic Acid Kit for 60 min. […] Assays were performed in triplicate. Data analysis was performed using GraphPad Prism version 4.00 for Windows (GraphPad Software, San Diego, Calif.).
T1 sequence (Q04609 whole entry): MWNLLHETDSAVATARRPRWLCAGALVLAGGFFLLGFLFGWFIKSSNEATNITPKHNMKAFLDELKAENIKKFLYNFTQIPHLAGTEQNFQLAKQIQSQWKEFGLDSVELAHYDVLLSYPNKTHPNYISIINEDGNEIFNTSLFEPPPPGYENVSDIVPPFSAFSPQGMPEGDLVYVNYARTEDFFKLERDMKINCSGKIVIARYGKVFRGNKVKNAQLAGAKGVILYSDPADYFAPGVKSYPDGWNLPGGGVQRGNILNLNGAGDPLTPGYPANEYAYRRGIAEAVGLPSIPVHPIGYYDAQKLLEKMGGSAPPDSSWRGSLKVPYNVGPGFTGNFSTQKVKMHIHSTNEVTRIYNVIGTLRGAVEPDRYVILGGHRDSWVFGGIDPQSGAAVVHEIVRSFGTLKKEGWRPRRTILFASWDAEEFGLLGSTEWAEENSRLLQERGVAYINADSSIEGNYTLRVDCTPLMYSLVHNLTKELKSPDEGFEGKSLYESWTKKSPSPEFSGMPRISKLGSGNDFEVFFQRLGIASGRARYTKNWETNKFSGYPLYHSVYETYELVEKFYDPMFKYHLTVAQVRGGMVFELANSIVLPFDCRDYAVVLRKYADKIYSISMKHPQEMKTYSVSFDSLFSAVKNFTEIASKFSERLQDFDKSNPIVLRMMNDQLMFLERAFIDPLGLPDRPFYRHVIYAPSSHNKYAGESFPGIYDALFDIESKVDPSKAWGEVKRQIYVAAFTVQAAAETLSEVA

Series [2] concerns the target T1, PSMA. The conditions noted are these: from Chen, 2008; read-out: Ki, PSMA inhibition; cited from earlier work.
Series [3] addresses T1, PSMA. As to conditions: cited from earlier work; for blood pool and salivary / lacrimal gland uptake in clinical PET imaging: patients.
Where [4] appears, read: Table 3, Cheng-Prusoff conversion, read-out: Ki.

Like-named read-outs stand apart in the source and are kept apart here.

As a reminder, the IC50 is the concentration that gives 50% inhibition. Read a high IC50 as lower potency. One may read the Ki as a measure of affinity in units of concentration, obtained from inhibition or displacement. For the compound `O=C(O)CC[C@H](NC(=O)O[C@@H](CCCCNC(=O)c1ccc(F)cc1)C(=O)O)C(=O)O` [XY-20, (S)-2-(((((S)-1-carboxy-5-(4-fluorobenzamido)pentyl)oxy)carbonyl)amino)pentanedioic acid], on PSMA [1], the “reduction in binding affinity compared to 9 (YC-I-26)” value is “more than 150 fold”. For the same compound, 210 nM corresponded to half-maximal inhibition against PSMA [1] (Table 3) (IC50). At PSMA [1] (setting [4]), the Ki came out at 42 nM. Regarding `COc1ccc2cc(C(=O)NCCCC[C@H](OC(=O)N[C@@H](CCC(=O)O)C(=O)O)C(=O)O)ccc2c1` [XY-22], the IC50 at PSMA [1] (Table 3) was determined as 104 nM. Further, the Ki on PSMA [1] (setting [4]) stood at 20 nM.

`O=C(O)CC[C@H](NC(=O)NC[C@@H](NC(=O)CCCNC(=O)c1ccc(-c2ccccc2)cc1F)C(=O)O)C(=O)O` [XY-46] registered an IC50 against PSMA [1] (Table 3) of 2 nM. At PSMA [1] (setting [4]), the Ki was found to be 0.4 nM. In the same order, the values of `O=C(O)CC[C@H](NC(=O)O[C@@H](CCCCNC(=O)c1ccc(-c2ccc(OCCF)cc2)cc1)C(=O)O)C(=O)O` [XY-24] are 120 nM and 22 nM. As to `O=CO[C@@H](CNC(=O)N[C@@H](CCC(=O)O)C(=O)O)NC(=O)CCCNC(=O)c1ccc(I)cc1F` [XY-44], the Ki at PSMA [1] (Table 4, read-out: Ki) was 0.017 nM; at PSMA [1] (read-out: Ki, PSMA inhibition), 0.02 nM. In turn, `CNC(=O)c1ccc(C(=O)NCCCC[C@H](OC(=O)N[C@@H](CCC(=O)O)C(=O)O)C(=O)O)cc1` [XY-30] gave a half-maximal inhibitory concentration (IC50) against PSMA [1] (Table 3) of 1300 nM. Also, the Ki at PSMA [1] (setting [4]) worked out at 270 nM. Regarding `Cc1cc(Br)ccc1C(=O)NCCCC(=O)N[C@H](CNC(=O)N[C@@H](CCC(=O)O)C(=O)O)OC=O` [XY-58], the inhibition constant Ki at PSMA [1] (Table 4, read-out: Ki) came out at 0.036 nM; at PSMA [1] (read-out: Ki, PSMA inhibition), 0.04 nM.

`O=C(O)CC[C@H](NC(=O)O[C@@H](CCCCNC(=O)c1ccc(I)cc1F)C(=O)O)C(=O)O` [XY-43]: the concentration for half-maximal inhibition (IC50) at PSMA [1] (Table 3) was determined as 1.6 nM. The Ki at PSMA [1] (setting [4]) came to 0.32 nM. On PSMA [1] (Table 3), `O=C(O)CC[C@H](NC(=O)O[C@@H](CCCCNC(=O)c1ccc(SCCF)cc1)C(=O)O)C(=O)O` [XY-38] showed an IC50 of 41 nM. Besides, the inhibition constant Ki on PSMA [1] (setting [4]) came to 8.3 nM. Consider `O=CO[C@@H](CNC(=O)N[C@@H](CCC(=O)O)C(=O)O)NC(=O)CCCNC(=O)c1ccc(F)cc1` [YC-I-26, reference compound], for which the Ki is 0.25 nM on PSMA [2] and 0.3 nM on PSMA [1] (Table 4, read-out: Ki). For the compound `O=C(O)CC[C@H](NC(=O)NC[C@H](NC(=O)c1ccc(F)cc1)C(=O)O)C(=O)O` [XY-34], on PSMA [1] (Table 3), it took 43000 nM to reach half-maximal inhibition (IC50). Further, the Ki at PSMA [1] (setting [4]) amounted to 9.7 nM. With `O=CO[C@@H](CNC(=O)N[C@@H](CCC(=O)O)C(=O)O)NC(=O)CCCNC(=O)c1ccc(Br)cc1` [XY-59], the Ki on PSMA [1] (Table 4, read-out: Ki) was 0.02 nM. Still for that read-out and setting: with `O=CO[C@@H](CNC(=O)N[C@@H](CCC(=O)O)C(=O)O)NC(=O)CCCNC(=O)c1ccc(C2=CCCCC2)cc1F` [XY-45] the figure was 0.1 nM.

Regarding `COc1ccc(-c2ccc(C(=O)NCCCC[C@H](OC(=O)N[C@@H](CCC(=O)O)C(=O)O)C(=O)O)cc2)cc1` [XY-23], the concentration for half-maximal inhibition (IC50) against PSMA [1] (Table 3) was 30 nM. The inhibition constant Ki on PSMA [1] (setting [4]) stood at 6 nM. As to `CSc1ccc(C(=O)NCCCC(=O)N[C@H](CNC(=O)N[C@@H](CCC(=O)O)C(=O)O)C(=O)O)cc1` [XY-40], the IC50 against PSMA [1] (Table 3) was 1.3 nM. Besides, the Ki at PSMA [1] (setting [4]) was determined as 0.26 nM. In the same order, the values of `O=C(O)CC[C@H](NC(=O)O[C@@H](CCNC(=O)c1ccc(F)cc1)C(=O)O)C(=O)O` [XY-16] are 4500 nM and 900 nM. Take `O=C(O)CC[C@H](NC(=O)O[C@@H](CCCCNC(=O)c1ccc(I)cc1)C(=O)O)C(=O)O` [XY-26]: at PSMA [1] (Table 3), it took 4.3 nM to reach half-maximal inhibition (IC50). The Ki on PSMA [1] (read-out: Ki, PSMA inhibition) was determined as 0.9 nM.

On PSMA [1] (Table 3), `O=C(O)CC[C@H](NC(=O)O[C@@H](CCCCNC(=O)c1ccc(Cl)cc1F)C(=O)O)C(=O)O` [XY-49] returned a 50% inhibitory concentration (IC50) of 192 nM. Also, the Ki on PSMA [1] (setting [4]) worked out at 38 nM. The corresponding values for `O=C(O)CC[C@H](NC(=O)O[C@H](CCNC(=O)c1ccc(F)cc1)C(=O)O)C(=O)O` [XY-17] are 4900 nM and 980 nM.

Take `O=C(O)CC[C@H](NC(=O)N[C@@H](CCCCNC(=O)Nc1ccc([131I])cc1)C(=O)O)C(=O)O` [[^131I]-MIP-1095]: the “dose-limiting organs from absorbed dose estimates” value on PSMA [3] (Zechmann, 2014) is “salivary glands, lower large intestinal wall, and kidneys”.

On to `O=C(O)CC[C@H](NC(=O)NC[C@H](NC(=O)CCCNC(=O)c1ccc(F)cc1)C(=O)O)C(=O)O` [XY-35], for which the midpoint of inhibition against PSMA [1] (Table 3), the IC50, lay at 8000 nM. Also, the Ki on PSMA [1] (setting [4]) came to 1600 nM. Consider `O=C(O)CC[C@H](NC(=O)N[C@@H](CSCc1ccc([18F])cc1)C(=O)O)C(=O)O` [[^18F]DCFBC], for which the “blood pool and salivary / lacrimal gland uptake in clinical PET imaging” value on PSMA [3] is listed as “persistent blood pool occupancy but low salivary gland uptake”. Regarding `CSc1ccc(C(=O)NCCCC[C@H](OC(=O)N[C@@H](CCC(=O)O)C(=O)O)C(=O)O)cc1` [XY-28], half-maximal inhibition against PSMA [1] (Table 3) (IC50) was put at 24 nM. The Ki at PSMA [1] (setting [4]) was 4.8 nM.

At PSMA [1] (Table 3), `O=C(O)CC[C@H](NC(=O)O[C@@H](CCCCNC(=O)c1ccc(-c2ccccc2)cc1F)C(=O)O)C(=O)O` [XY-42] returned a half-inhibitory concentration (IC50) of 86 nM. Also, on PSMA [1] (setting [4]), the inhibitory constant (Ki) was 13 nM.

For the compound `O=C(O)CC[C@H](NC(=O)O[C@@H](CCCCNC(=O)c1ccc(SCc2ccc(F)cc2)cc1)C(=O)O)C(=O)O` [XY-39], on PSMA [1] (Table 3), the IC50 was 46 nM. The Ki at PSMA [1] (setting [4]) stood at 9.3 nM. The corresponding values for `O=C(O)CC[C@H](NC(=O)O[C@@H](CCCCNC(=O)c1ccc(I)cc1OCCCCNC(=O)c1ccc(I)cc1)C(=O)O)C(=O)O` [XY-50] are 3800 nM and 770 nM. The corresponding values for `O=C(O)CC[C@H](NC(=O)O[C@@H](CCCCNC(=O)c1ccc2ccccc2c1)C(=O)O)C(=O)O` [XY-21] are 60 nM and 12 nM. In the same order, the values of `CC(=O)Nc1ccc(C(=O)NCCCC[C@H](OC(=O)N[C@@H](CCC(=O)O)C(=O)O)C(=O)O)cc1` [XY-29] are 660 nM and 130 nM. Take `O=C(O)CC[C@H](NC(=O)N[C@@H](CCCCNC(=O)Nc1ccc([123I])cc1)C(=O)O)C(=O)O` [[^124I]-MIP-1095]: the “blood pool and salivary / lacrimal gland uptake in clinical PET imaging” value on PSMA [3] was “rapid clearance from the blood but high uptake in salivary and lacrimal glands”. Consider `O=C(O)CC[C@H](NC(=O)N[C@@H](CSCc1ccc(I)cc1)C(=O)O)C(=O)O` [DCIBC, reference compound], for which the Ki at PSMA [1] (Table 4, read-out: Ki) amounted to 0.03 nM. On to `COc1ccc(C(=O)NCCCC[C@H](OC(=O)N[C@@H](CCC(=O)O)C(=O)O)C(=O)O)cc1` [XY-27], for which the half-maximal inhibitory concentration (IC50) at PSMA [1] (Table 3) amounted to 100 nM. Besides, on PSMA [1] (setting [4]), the Ki was determined as 21 nM.
